# According to patent US9345732B2, “Agents derived from Holoptelea integrifolia and their compositions for the control of metabolic syndrome and associated diseases” (Laila Nutraceuticals, priority 2009, dated 2016):
# Assay: Diet induced metabolic syndrome model in SD rats (body weight, fat tissue weight, serum lipids)
# Assay type: in vivo, Sprague Dawley Rats
# Conditions: end of 8 weeks treatment, Composition-1 250 mg/kg or sibutramine 7 mg/kg (FIG. 6A)
# Procedure: The extracts of Holoptelea integrifolia were then combined with other herbal extracts and tested for their efficacy. […] The Metabolic syndrome was induced in Sprague Dawley Rats by feeding the rats high fat and high cholesterol diet containing roasted bengal gram, sucrose, milk powder, mineral salt mixture, yeast, butter, groundnut oil and cholesterol for 8 weeks. Following 8 weeks induction phase, the animals were treated daily either with 250 mg/kg body weight of composition-1 or 7 mg/kg body weight of sibutramine in 10 mL of 0.5% CMC for further 8 weeks. The control group of animals were received only the vehicle (10 mL of 0.5% CMC) during this period.
# Animals were acclimatized for 7 days prior to study initiation. […]
# Following 8 weeks induction phase, the animals were treated orally with 250 mg/kg body weight of Composition-1 or 7 mg/kg body weight of sibutramine in 10 mL of 0.5% CMC for further 8 weeks. […] Body weight of individual animal was recorded weekly in the entire duration of the study. […]
# Various biochemical parameters including lipid profile were tested using biochemistry reagents supplied by Human, Germany, in an automated clinical chemistry analyzer HumaStar300, Make: Human, Germany. Mean values of the biochemical parameters estimated before induction, after induction/before treatment and after treatment were measured and compared.
structure (smiles),measurement,value
CC(C)CC(N(C)C)C1(c2ccc(Cl)cc2)CCC1 (stereo not shown) [Sibutramine],serum cholesterol levels,statistically significant reduction
